Assay results taken from patent US9469645B2, “Compounds and compositions for the treatment of parasitic diseases” (Novartis AG, priority 2009, dated 2016).

Key:
3D7 P. falciparum strain = experiment: parasite proliferation assay in infected red blood cells (SYBR Green I); type: cell-based, Plasmodium falciparum; conditions: Plasmodium falciparum, 3D7, Erythrocyte, 3D7 strain; read-out: EC50 3D7 strain
Outline: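 P. falciparum 3D7 grown in O+ human erythrocytes to 3–8% parasitemia and exposed to compounds. Proliferation read as the increase in parasite DNA. Detection used SYBR Green I in saponin/triton-X/EDTA lysis buffer, with overnight lysis at room temperature.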

W2 strain = experiment: parasite proliferation assay in infected red blood cells (SYBR Green I), W2 strain; type: cell-based; conditions: Erythrocyte
From the text: Compounds of the invention can be assayed to measure their capacity to inhibit proliferation of parasitemia in infected red blood cells. The proliferation is quantified by the addition of SYBR Green I (INVITROGEN)® dye which has a high affinity for double stranded DNA.

`O=C(CCc1ccccc1F)N1CCn2c(nc(-c3ccc(F)cc3)c2Nc2ccc(Cl)c(F)c2)C1` [Compound 359] showed an EC50 (3D7 P. falciparum strain) of 140 nM and an EC50 (W2 strain) of 108 nM.

Compound `CC(C)[C@@H](O)C(=O)N1CCn2c(nc(-c3ccc(F)cc3)c2Nc2ccc(Cl)c(F)c2)C1` [Compound 360] has an EC50 (3D7 P. falciparum strain) of 30 nM and an EC50 (W2 strain) of 15 nM.

Compound `Cc1ccc(Nc2c(-c3ccc(F)cc3)nc3n2CCN(C(=O)CNc2cccc(Cl)c2)C3)cc1` [Compound 361] has an EC50 (3D7 P. falciparum strain) of 2350 nM and an EC50 (W2 strain) of 1140 nM.

Work on `Cc1ccc(NCC(=O)N2CCn3c(nc(-c4ccc(F)cc4)c3Nc3ccc(C)cc3)C2)cc1` [Compound 362] yielded an EC50 (3D7 P. falciparum strain) of 810 nM and an EC50 (W2 strain) of 203 nM.

Compound `O=C(Cc1ccc(Cl)c(F)c1)N1CCn2c(nc(-c3ccc(F)cc3)c2Nc2ccc(Cl)c(F)c2)C1` [Compound 363] has an EC50 (3D7 P. falciparum strain) of 1750 nM and an EC50 (W2 strain) of 1130 nM.

`COc1ccc(NC(C)(C)C(=O)N2CCn3c(nc(-c4ccc(F)cc4)c3Nc3ccc(C)cc3)C2)cc1` [Compound 364] gave an EC50 (3D7 P. falciparum strain) of 4950 nM and an EC50 (W2 strain) of 3740 nM.

With `NC(C(=O)N1CCn2c(nc(-c3ccc(F)cc3)c2Nc2ccc(Cl)c(F)c2)C1)c1ccc(Cl)c(Cl)c1` (stereo not drawn) [Compound 365] the EC50 (3D7 P. falciparum strain) was 610 nM and the EC50 (W2 strain) was 260 nM.

`Cc1ccc(Nc2c(-c3ccc(F)cc3)nc3n2CCN(C(=O)C(C)(N)C(F)(F)F)C3)cc1` (stereo not drawn) [Compound 366] showed an EC50 (3D7 P. falciparum strain) of 3470 nM and an EC50 (W2 strain) of 1820 nM.

For `O=C(C1CNCCO1)N1CCn2c(nc(-c3ccc(F)cc3)c2Nc2ccc(Cl)c(F)c2)C1` (stereo not drawn) [Compound 367], the EC50 (3D7 P. falciparum strain) was 190 nM and the EC50 (W2 strain) was 148 nM.

In the case of `NC(C(=O)N1CCn2c(nc(-c3ccc(F)cc3)c2Nc2ccc(Cl)c(F)c2)C1)c1ccc(C(F)(F)F)cc1` (stereo not drawn) [Compound 368], the EC50 (3D7 P. falciparum strain) is reported as 520 nM and the EC50 (W2 strain) is reported as 286 nM.

In the case of `NC(C(=O)N1CCn2c(nc(-c3ccc(F)cc3)c2Nc2ccc(Cl)c(F)c2)C1)c1ccc(Cl)cc1` (stereo not drawn) [Compound 369], the EC50 (3D7 P. falciparum strain) is reported as 110 nM and the EC50 (W2 strain) is reported as 84 nM.

`O=C(c1ccc2ncccc2c1)N1CCn2c(nc(-c3ccc(F)cc3)c2Nc2ccc(Cl)c(F)c2)C1` [Compound 370] gave an EC50 (3D7 P. falciparum strain) of 4350 nM and an EC50 (W2 strain) of 8340 nM.

Work on `Cc1ccc(Nc2c(-c3ccc(F)cc3)nc3n2CCN(C(=O)C(Nc2ccc(C)cc2)c2ccccc2)C3)cc1` (stereo not drawn) [Compound 371] yielded an EC50 (3D7 P. falciparum strain) of 1520 nM and an EC50 (W2 strain) of 1280 nM.

`CN1CCOC(C(=O)N2CCn3c(nc(-c4ccc(F)cc4)c3Nc3ccc(Cl)c(F)c3)C2)C1` (stereo not drawn) [Compound 372] gave an EC50 (3D7 P. falciparum strain) of 690 nM and an EC50 (W2 strain) of 554 nM.

In the case of `Cc1ccc(Nc2c(-c3ccc(F)cc3)nc3n2CCN(C(=O)C(C)(C)Nc2ccccc2)C3)cc1` [Compound 374], the EC50 (3D7 P. falciparum strain) is reported as 590 nM and the EC50 (W2 strain) is reported as 248 nM.

With `CC(C)(N)C(=O)N1CCn2c(nc(-c3cccc(F)c3)c2Nc2ccc(F)cc2C(F)(F)F)C1` [Compound 375] the EC50 (3D7 P. falciparum strain) was 1130 nM and the EC50 (W2 strain) was 679 nM.

With `CN[C@H](C(=O)N1CCn2c(nc(-c3ccc(F)cc3)c2Nc2ccc(C)cc2)C1)C(C)C` [Compound 376] the EC50 (3D7 P. falciparum strain) was 60 nM and the EC50 (W2 strain) was 79 nM.

`CN[C@@H](CC(C)C)C(=O)N1CCn2c(nc(-c3ccc(F)cc3)c2Nc2ccc(C)cc2)C1` [Compound 378] gave an EC50 (3D7 P. falciparum strain) of 60 nM and an EC50 (W2 strain) of 63 nM.

Compound `Cc1ccc(Nc2c(-c3ccc(F)c(F)c3)nc3n2CCN(C(=O)C(C)(C)N)C3)cc1` [Compound 379] has an EC50 (3D7 P. falciparum strain) of 60 nM and an EC50 (W2 strain) of 50 nM.

`Cc1ccc(Nc2c(-c3ccc(F)cc3)nc3n2CCN(C(=O)C(C)Nc2c(C)cccc2C)C3)cc1` (stereo not drawn) [Compound 380] gave an EC50 (3D7 P. falciparum strain) of 1130 nM and an EC50 (W2 strain) of 1790 nM.

`COc1ccccc1-c1nc2n(c1Nc1ccc(C)cc1)CCN(C(=O)CN)C2` [Compound 381] showed an EC50 (3D7 P. falciparum strain) of 1970 nM and an EC50 (W2 strain) of 1800 nM.

`Cc1ccc(Nc2c(-c3ccncc3)nc3n2CCN(C(=O)CN)C3)cc1` [Compound 382] was tested, and the EC50 (3D7 P. falciparum strain) was 1050 nM and the EC50 (W2 strain) was 1040 nM.

`Cc1ccc(Nc2c(-c3cccc(Cl)c3)nc3n2CCN(C(=O)CN)C3)cc1` [Compound 383] showed an EC50 (3D7 P. falciparum strain) of 50 nM and an EC50 (W2 strain) of 32 nM.

Compound `Cc1ccc(Nc2c(-c3ccc(F)cc3)nc3n2CCN(C(=O)CNc2ccc(C)cc2C)C3)cc1` [Compound 384] has an EC50 (3D7 P. falciparum strain) of 470 nM and an EC50 (W2 strain) of 889 nM.

`Cc1ccc(Nc2c(-c3ccc(F)c(F)c3)nc3n2CCN(C(=O)CN)C3)cc1` [Compound 385] gave an EC50 (3D7 P. falciparum strain) of 20 nM and an EC50 (W2 strain) of 20 nM.

With `Cc1ccc(Nc2c(-c3ccc(F)cc3)nc3n2CCN(C(=O)C(C)(C)Nc2ccc(C)cc2)C3)cc1` [Compound 386] the EC50 (3D7 P. falciparum strain) was 2620 nM and the EC50 (W2 strain) was 3030 nM.

Compound `Cc1ccc(Nc2c(-c3ccc(F)cc3F)nc3n2CCN(C(=O)CN)C3)cc1` [Compound 387] has an EC50 (3D7 P. falciparum strain) of 110 nM and an EC50 (W2 strain) of 80 nM.

`Cc1ccc(Nc2c(-c3ccc(F)cc3)nc3n2CCN(C(=O)[C@H](C)N(C)Cc2ccccc2)C3)cc1` [Compound 388] gave an EC50 (3D7 P. falciparum strain) of 3220 nM and an EC50 (W2 strain) of 1770 nM.

For `CCCC[C@H](NC)C(=O)N1CCn2c(nc(-c3ccc(F)cc3)c2Nc2ccc(C)cc2)C1` [Compound 389], the EC50 (3D7 P. falciparum strain) was 60 nM and the EC50 (W2 strain) was 51 nM.

Work on `Cc1ccc(CC(=O)N2CCn3c(nc(-c4ccc(F)c(F)c4)c3Nc3ccc(C)cc3)C2)cc1` [Compound 390] yielded an EC50 (3D7 P. falciparum strain) of 30 nM and an EC50 (W2 strain) of 28 nM.
